ChEMBL document CHEMBL2346571 (Bioorg Med Chem, 2013)
The source made the active and inactive calls. The calls are words filed in the database; no cut-off is given here.

Assays:
Rattus norvegicus [1] = experiment: Antiobesity activity in Wistar rat assessed as reduction of food intake at 3 mg/kg, ip after 30 mins; type: functional, organism-based; set-up: dose 3 mg/kg
Rattus norvegicus [2] = experiment: Antiobesity activity in Wistar rat assessed as reduction of food intake at 3 mg/kg, ip after 60 to 240 mins; type: functional, organism-based; set-up: dose 3 mg/kg
Cannabinoid receptor 1 = Cannabinoid receptor 1 (Homo sapiens, UniProt P21554); experiment: Displacement of [3H]-CP55940 from human CB1 receptor after 90 mins by liquid scintillation spectrophotometer analysis
Cannabinoid receptor 2 = Cannabinoid receptor 2 (Homo sapiens, UniProt P34972); experiment: Displacement of [3H]-CP55940 from human CB2 receptor after 90 mins by liquid scintillation spectrophotometer analysis
Rattus norvegicus [3] = experiment: Antiobesity activity in Wistar rat assessed as reduction of food intake at 3 mg/kg, ip after 30 to 240 mins; type: functional, organism-based; set-up: dose 3 mg/kg
Rattus norvegicus [4] = experiment: Antiobesity activity in Wistar rat assessed as reduction of food intake at 3 mg/kg, ip; type: functional, organism-based; set-up: dose 3 mg/kg
Rattus norvegicus [5] = experiment: Increase of food intake in Wistar rat at 3 mg/kg, ip after 30 to 240 mins; type: functional, organism-based; set-up: dose 3 mg/kg

Sequence of Cannabinoid receptor 2 (P34972 whole entry): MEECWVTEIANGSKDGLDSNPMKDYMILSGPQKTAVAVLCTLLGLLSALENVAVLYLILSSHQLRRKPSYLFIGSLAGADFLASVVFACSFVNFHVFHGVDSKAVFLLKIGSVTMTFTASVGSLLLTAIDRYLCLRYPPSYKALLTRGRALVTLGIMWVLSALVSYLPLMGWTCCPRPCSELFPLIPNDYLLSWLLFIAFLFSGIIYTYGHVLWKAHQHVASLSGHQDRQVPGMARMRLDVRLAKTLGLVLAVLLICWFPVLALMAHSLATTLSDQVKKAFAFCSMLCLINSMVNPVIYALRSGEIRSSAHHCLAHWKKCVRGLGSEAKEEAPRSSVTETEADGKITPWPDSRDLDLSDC
Sequence of Cannabinoid receptor 1 (P21554 whole entry): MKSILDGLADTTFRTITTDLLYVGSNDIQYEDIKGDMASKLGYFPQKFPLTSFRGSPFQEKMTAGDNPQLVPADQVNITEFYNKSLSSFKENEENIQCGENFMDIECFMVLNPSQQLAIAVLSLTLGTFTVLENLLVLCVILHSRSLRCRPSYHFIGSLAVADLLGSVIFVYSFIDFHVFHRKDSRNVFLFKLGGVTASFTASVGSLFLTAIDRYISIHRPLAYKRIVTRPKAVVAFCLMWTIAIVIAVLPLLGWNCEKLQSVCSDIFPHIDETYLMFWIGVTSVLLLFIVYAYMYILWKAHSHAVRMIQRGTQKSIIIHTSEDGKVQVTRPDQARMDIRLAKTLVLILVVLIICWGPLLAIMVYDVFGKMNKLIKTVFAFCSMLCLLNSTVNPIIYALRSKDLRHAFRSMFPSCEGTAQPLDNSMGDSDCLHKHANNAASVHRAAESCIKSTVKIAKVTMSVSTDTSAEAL

SMILES: O=C(NN1CCCCC1)c1cc(-c2ccccc2)n(-c2ccccc2)n1
- Activity (Rattus norvegicus [1]): inactive
- Activity (Rattus norvegicus [2]): Active
- Ki (Cannabinoid receptor 1): 4.59 µM
- Ki (Cannabinoid receptor 2): 27.9 µM

SMILES: CCCCCCc1cc(-c2ccc(Cl)cc2)n(-c2ccc(Cl)cc2Cl)n1
- Ki (Cannabinoid receptor 1): > 40 µM
- Ki (Cannabinoid receptor 2): > 40 µM

SMILES: CCCCCCCC/C=C\CCCCCCCCNC(=O)c1nn(-c2ccccc2)c(-c2ccccc2)c1C
- Activity (Rattus norvegicus [3]): inactive
- Ki (Cannabinoid receptor 1): > 40 µM
- Ki (Cannabinoid receptor 2): > 40 µM

SMILES: CCCCCc1cc(-c2ccccc2)n(-c2ccccc2)n1
- Ki (Cannabinoid receptor 1): 6.16 µM
- Ki (Cannabinoid receptor 2): 2.94 µM

SMILES: CCCCCc1cc(-c2ccc(Cl)cc2)n(-c2ccc(Cl)cc2Cl)n1
- Ki (Cannabinoid receptor 1): > 40 µM
- Activity (Rattus norvegicus [4]): Active
- Ki (Cannabinoid receptor 2): 0.458 µM

SMILES: CCCCCCCCCCCCCCCCNC(=O)c1cc(-c2ccccc2)n(-c2ccccc2)n1
- Activity (Rattus norvegicus [3]): Active
- Ki (Cannabinoid receptor 1): > 40 µM
- Ki (Cannabinoid receptor 2): > 10 µM

SMILES: CCCCCCCC/C=C\CCCCCCCCNC(=O)c1cc(-c2ccccc2)n(-c2ccccc2)n1
- Activity (Rattus norvegicus [3]): inactive
- Ki (Cannabinoid receptor 1): > 40 µM
- Ki (Cannabinoid receptor 2): > 40 µM

SMILES: CCCCCCCC/C=C\CCCCCCCCNC(=O)c1nc(-c2ccc(Cl)cc2)n(-c2ccc(Cl)cc2)n1
- Activity (Rattus norvegicus [3]): inactive
- Ki (Cannabinoid receptor 1): > 40 µM
- Ki (Cannabinoid receptor 2): > 40 µM

SMILES: Cc1c(C(=O)NN2CCCCC2)nn(-c2ccccc2)c1-c1ccccc1
- Activity (Rattus norvegicus [5]): Active
- Ki (Cannabinoid receptor 1): 9.69 µM
- Ki (Cannabinoid receptor 2): 18.2 µM

SMILES: CCCCCCCCCCCCCCCCNC(=O)c1nn(-c2ccccc2)c(-c2ccccc2)c1C
- Activity (Rattus norvegicus [3]): Active
- Ki (Cannabinoid receptor 1): > 10 µM
- Ki (Cannabinoid receptor 2): > 10 µM

SMILES: CCCCCCc1nc(-c2ccc(Cl)cc2)n(-c2ccc(Cl)cc2Cl)n1
- Ki (Cannabinoid receptor 1): 0.829 µM
- Ki (Cannabinoid receptor 2): 3.08 µM

SMILES: CCCCCCCCCCCCCCCCNC(=O)c1nc(-c2ccc(Cl)cc2)n(-c2ccc(Cl)cc2)n1
- Activity (Rattus norvegicus [3]): Active
- Ki (Cannabinoid receptor 1): > 10 µM
- Ki (Cannabinoid receptor 2): > 10 µM
